ChEMBL document CHEMBL4138148, “Discovery of novel pyrrolo-pyridine/pyrimidine derivatives bearing pyridazinone moiety as c-Met kinase inhibitors” (Eur J Med Chem, 2017)

Experiments:
Experiment in all cases: cells
A549 = settings: Homo sapiens, A549, 72 h
Description: Cytotoxicity against human A549 cells assessed as reduction in cell viability after 72 hrs by MTT assay

HepG2 = settings: Homo sapiens, HepG2, 72 h
Description: Cytotoxicity against human HepG2 cells assessed as reduction in cell viability after 72 hrs by MTT assay

MCF7 = settings: Homo sapiens, MCF7, 72 h
Description: Cytotoxicity against human MCF7 cells assessed as reduction in cell viability after 72 hrs by MTT assay

PC-3 = settings: Homo sapiens, PC-3, 72 h
Description: Cytotoxicity against human PC3 cells assessed as reduction in cell viability after 72 hrs by MTT assay

Compound	IC50 (A549) [µM]	IC50 (HepG2) [µM]	IC50 (MCF7) [µM]	IC50 (PC-3) [µM]
Cn1ccc2c(Oc3ccc(NC(=O)c4nn(-c5ccc(Cl)c(F)c5)ccc4=O)cc3)ccnc21	> 60	> 60	16.8	32.7
O=C(Nc1ccc(Oc2ccnc3[nH]ccc23)c(F)c1)c1nn(-c2ccc(Cl)cc2)ccc1=O	> 60	> 60	> 60	42.5
Cc1ccc(-n2nc(C(=O)Nc3ccc(Oc4ncnc5c4ccn5C)cc3)c(C)cc2=O)cc1	> 60	33.8	10.8	> 60
Cc1cc(=O)n(-c2cccc(F)c2)nc1C(=O)Nc1ccc(Oc2ncnc3c2ccn3C)cc1	23.4	> 60	30.8	> 60
Cc1cc(=O)n(-c2ccccc2Cl)nc1C(=O)Nc1ccc(Oc2ncnc3c2ccn3C)c(F)c1	> 60	> 60	> 60	> 60
Cc1cc(=O)n(-c2ccc(Br)cc2F)nc1C(=O)Nc1ccc(Oc2ncnc3c2ccn3C)c(F)c1	14.4	> 60	> 60	6.67
Cn1ccc2c(Oc3ccc(NC(=O)c4nn(-c5ccc(Br)cc5)ccc4=O)cc3)ccnc21	59.4	39.2	16.2	23
Cc1cc(=O)n(-c2ccc(Br)cc2F)nc1C(=O)Nc1ccc(Oc2ncnc3[nH]ccc23)c(F)c1	6.12	32	26.6	13.3
Cc1cc(=O)n(-c2cccc(F)c2)nc1C(=O)Nc1ccc(Oc2ncnc3[nH]ccc23)c(F)c1	31.4	23.1	32	6.68
Cn1ccc2c(Oc3ccc(NC(=O)c4nn(-c5ccc(Br)cc5F)ccc4=O)cc3)ccnc21	35.7	31.2	19.8	20.5
Cc1ccc(-n2nc(C(=O)Nc3ccc(Oc4ncnc5c4ccn5C)c(F)c3)c(C)cc2=O)cc1	> 60	> 60	> 60	50.5
Cc1cc(=O)n(-c2cccc(F)c2)nc1C(=O)Nc1ccc(Oc2ncnc3[nH]ccc23)cc1	34.8	3.18	9.67	14.6
Cn1ccc2c(Oc3ccc(NC(=O)c4nn(-c5ccc(Br)cc5)ccc4=O)cc3F)ccnc21	> 60	> 60	33.6	> 60
Cc1cc(=O)n(-c2ccccc2OC(F)(F)F)nc1C(=O)Nc1ccc(Oc2ncnc3c2ccn3C)c(F)c1	> 60	> 60	> 60	> 60
O=C(Nc1ccc(Oc2ccnc3[nH]ccc23)c(F)c1)c1nn(-c2ccc(Br)cc2F)ccc1=O	55.7	56.5	23.5	8.8
COc1ccc(-n2ccc(=O)c(C(=O)Nc3ccc(Oc4ccnc5[nH]ccc45)c(F)c3)n2)cc1	> 60	> 60	55.4	46.4
Cc1cc(=O)n(-c2ccccc2OC(F)(F)F)nc1C(=O)Nc1ccc(Oc2ncnc3[nH]ccc23)cc1	16.2	22.8	32	22.5
O=C(Nc1ccc(Oc2ccnc3[nH]ccc23)c(F)c1)c1nn(-c2ccc(Br)cc2)ccc1=O	> 60	68	11.6	40.8
COc1ccc(-n2ccc(=O)c(C(=O)Nc3ccc(Oc4ccnc5[nH]ccc45)cc3)n2)cc1	53.1	50.8	21.6	> 60

Compound	IC50 (A549) [µM]	IC50 (HepG2) [µM]	IC50 (MCF7) [µM]	IC50 (PC-3) [µM]
Cc1cc(=O)n(-c2ccc(F)cc2)nc1C(=O)Nc1ccc(Oc2ncnc3[nH]ccc23)cc1	> 60	> 60	4.8	> 60
O=C(Nc1ccc(Oc2ccnc3[nH]ccc23)c(F)c1)c1nn(-c2ccc(Cl)c(F)c2)ccc1=O	10.3	9.61	11.6	13.6
Cn1ccc2c(Oc3ccc(NC(=O)c4nn(-c5ccc(Cl)c(C(F)(F)F)c5)ccc4=O)cc3F)ccnc21	17.7	13.5	18.4	20.9
Cc1cc(=O)n(-c2ccccc2OC(F)(F)F)nc1C(=O)Nc1ccc(Oc2ncnc3[nH]ccc23)c(F)c1	16.2	> 60	11.7	> 60
COc1ccc(-n2ccc(=O)c(C(=O)Nc3ccc(Oc4ccnc5c4ccn5C)c(F)c3)n2)cc1	> 60	> 60	> 60	> 60
O=C(Nc1ccc(Oc2ccnc3[nH]ccc23)c(F)c1)c1nn(-c2ccc(Cl)c(C(F)(F)F)c2)ccc1=O	13.4	11.9	11.6	5.5
Cc1cc(=O)n(-c2cccc(C(F)(F)F)c2)nc1C(=O)Nc1ccc(Oc2ncnc3[nH]ccc23)cc1	7.57	9.47	4.56	3.46
Cn1ccc2c(Oc3ccc(NC(=O)c4nn(-c5ccccc5)ccc4=O)cc3)ccnc21	51.7	56.2	45.1	58.2
Cc1cc(=O)n(-c2ccccc2Cl)nc1C(=O)Nc1ccc(Oc2ncnc3c2ccn3C)cc1	5.12	11.2	4.13	16.4
Cn1ccc2c(Oc3ccc(NC(=O)c4nn(-c5ccccc5)ccc4=O)cc3F)ccnc21	> 60	> 60	> 60	> 60
Cn1ccc2c(Oc3ccc(NC(=O)c4nn(-c5ccc(Cl)c(C(F)(F)F)c5)ccc4=O)cc3)ccnc21	11.4	23.4	15.2	10.3
Cc1cc(=O)n(-c2ccccc2OC(F)(F)F)nc1C(=O)Nc1ccc(Oc2ncnc3c2ccn3C)cc1	25.2	> 60	27	5.16
O=C(Nc1ccc(Oc2ccnc3[nH]ccc23)cc1)c1nn(-c2ccc(Br)cc2)ccc1=O	6.24	4.28	7.89	8.04
Cc1cc(=O)n(-c2cccc(F)c2)nc1C(=O)Nc1ccc(Oc2ncnc3c2ccn3C)c(F)c1	> 60	> 60	> 60	8.99
Cn1ccc2c(Oc3ccc(NC(=O)c4nn(-c5ccc(Cl)cc5)ccc4=O)cc3)ccnc21	> 60	> 60	> 60	> 60
Cc1cc(=O)n(-c2ccccc2C(F)(F)F)nc1C(=O)Nc1ccc(Oc2ncnc3c2ccn3C)cc1	5.86	27.2	7.84	19.1
Cn1ccc2c(Oc3ccc(NC(=O)c4nn(-c5ccc(Cl)cc5)ccc4=O)cc3F)ccnc21	> 60	> 60	> 60	> 60
Cc1cc(=O)n(-c2cccc(C(F)(F)F)c2)nc1C(=O)Nc1ccc(Oc2ncnc3[nH]ccc23)c(F)c1	35.1	26.3	11.8	15.6
Cc1cc(=O)n(-c2ccc(Br)cc2F)nc1C(=O)Nc1ccc(Oc2ncnc3c2ccn3C)cc1	47.3	33.6	27.7	18.8
